# Source: patent US20040053974A1, “Medicinal compositions containing diuretic and insulin resistance-improving agent” (priority 2000, published 2004)
# Marks after values point to notes of the source that are not given here.
# Assays:
# Format in all cases: in vivo, rat
# Zucker fatty rats = assay: Co-administration of furosemide or amiloride with compound A for 14 days: blood parameters, heart-weight, circulating serum volume; settings: for blood dilution (decreases in hematocrit value and the number of red blood cells) caused by compound A / increases in circulating serum volume caused by compound A / increases in heart-weight caused by compound A: orally 14 days, 1 ml/kg of furosemide 100 mg/ml or amiloride 10 mg/ml
# Description: Zucker fatty rats (7 weeks old, SLC, Shizuoka, Japan) were grouped as 5 rats a group. Mean body weight, plasma glucose and glyceride levels, hematocrit value, and the number of red blood cells in each group were similar among the groups. The rats were allowed to take food pellets (F2, Funabashi Farm) and water ad libitum. In the control group, the rats were given only food pellets, while the rest of rats were administered 5-[4-(6-methoxy-1-methyl-1H-benzimidazol-2-ylmethoxy)benzyl]thiazolidine-2,4-dione hydrochloride (suspended in 0.5% solution of carboxymethylcellulose (CMC)) at a volume of 1 ml/kg orally by gavage. In the groups of rats administered the above compound with furosemide (100 mg/ml, suspended in 0.5% CMC solution) or amiloride (10 mg/ml, suspended in distilled water), these diuretics were orally administered by gavage for 14 successive days at a volume of 1 ml/kg. After the final administration, the rats were fasted overnight, and their blood was collected from the tail vein with a capillary treated with heparin and EDTA on the 15th day.
# Plasma glucose level and blood cell parameters were determined using an automatic analyzer (plasma glucose: Glucoloader GX-T, A&T Corp., blood cell parameters: K-1000, Sysmex Corporation, Kobe, Japan). Triglyceride was detected by the absorbance method with a kit (Triglyceride-E Test Wako, Wako Pure Chemical Industries, Ltd.). Concentrations of insulin and leptin were detected with RIA kits (Rat Insulin RIA Kit, Linco Research Inc.). Furthermore, circulating serum volume was determined by the dilution method using Evans blue.
# female Wistar rats [1] = assay: Co-administration of furosemide with compound A: circulating serum volume, heart-weight, edema and hydrothorax (macroscopic observation)
# Description: 5-[4-(6-Methoxy-1-methyl-1H-benzimidazol-2-ylmethoxy)benzyl]thiazolidine-2,4-dione hydrochloride (200 mg/kg) was repeatedly and orally administered by gavage for 3 or 7 successive days to female Wistar rats (7 weeks old, Charles River Japan, Inc.) and furosemide (120 mg/kg and 240 mg/kg) was dietarily administered during the period.
# female Wistar rats [2] = assay: Heart-weight and circulating serum volume (Evans blue method) after repeated oral administration; settings: for Ratio against control Heart-Weight / Ratio against control Circulating Serum volume: 200 mg/kg orally by gavage, female Wistar rats
# Description: After 5-[4-(6-methoxy-1-methyl-1H-benzimidazol-2-ylmethoxy)benzyl]thiazolidine-2,4-dione hydrochloride (200 mg/kg) was repeatedly and orally administered by gavage for 3 or 7 successive days to female Wistar rats (7 weeks old, Charles River Japan, Inc.), circulating serum volume was determined by Evans blue methods and heart-weight recorded.
# [3] = co-administered with compound A, Zucker fatty rats
# [4] = Furosemide 120 mg/kg dietary, co-administered with Compound A 200 mg/kg orally, female Wistar rats
# [5] = Furosemide 240 mg/kg dietary, co-administered with Compound A 200 mg/kg orally, female Wistar rats
# [6] = furosemide 120 and 240 mg/kg dietary co-administered with compound A 200 mg/kg
# [7] = furosemide 120 and 240 mg/kg dietary co-administered with compound A 200 mg/kg, FIG. 1
# [8] = 7 successive days, n = 12, p < 0.01
# [9] = 200 mg/kg orally, after administration for both 3 and 7 days
# [10] = orally by gavage, 14 successive days, Zucker fatty rats, FIG. 2
# [11] = Compound A 200 mg/kg orally, Furosemide 0, female Wistar rats
smiles,measurement,setting,value
N=C(N)NC(=O)c1nc(Cl)c(N)nc1N [amiloride],ameliorating effects compared with furosemide,"Zucker fatty rats; amiloride at 1/10 the dose of furosemide, co-administered with compound A, Zucker fatty rats",at least as potent as those of furosemide
same,blood dilution (decreases in hematocrit value and the number of red blood cells) caused by compound A,Zucker fatty rats; [3],suppressed
same,increases in circulating serum volume caused by compound A,Zucker fatty rats; [3],suppressed
same,increases in heart-weight caused by compound A,Zucker fatty rats; [3],suppressed
same,"suppression of side effects caused by insulin sensitizers, relative to diuretic action",Zucker fatty rats; rats co-treated with amiloride and compound A,more potent than those predicted from its diuretic action
"NS(=O)(=O)c1cc(C(=O)O)c(NCc2ccco2)cc1Cl [Furosemide, furosemide]",blood dilution (decreases in hematocrit value and the number of red blood cells) caused by compound A,Zucker fatty rats; [3],suppressed
same,increases in circulating serum volume caused by compound A,Zucker fatty rats; [3],suppressed
same,increases in heart-weight caused by compound A,Zucker fatty rats; [3],suppressed
same,"Macroscopic Observation, Edema: Subcutaneous tissue (incidence)",female Wistar rats [1]; [4],0/12
same,"Macroscopic Observation, Edema: brown adipose tissue (incidence)",female Wistar rats [1]; [4],12/12
same,"Macroscopic Observation, Edema: interstitial tissue of thymus (incidence)",female Wistar rats [1]; [4],0/12
same,"Macroscopic Observation, Hydrothorax (incidence)",female Wistar rats [1]; [4],2/12
same,mean weight of thymus,female Wistar rats [1]; [4],450.6 mg
same,"Macroscopic Observation, Edema: Subcutaneous tissue (incidence)",female Wistar rats [1]; [5],0/12
same,"Macroscopic Observation, Edema: brown adipose tissue (incidence)",female Wistar rats [1]; [5],10/12
same,"Macroscopic Observation, Edema: interstitial tissue of thymus (incidence)",female Wistar rats [1]; [5],0/12
same,"Macroscopic Observation, Hydrothorax (incidence)",female Wistar rats [1]; [5],0/12
same,mean weight of thymus,female Wistar rats [1]; [5],375.9 mg
same,Decreases in the number of circulating red blood cells produced by compound A,female Wistar rats [1]; [6],prevented
same,edema and hydrothorax associated with administration of compound A,female Wistar rats [1]; [6],suppressed
same,increases in circulating serum volume elicited by compound A,female Wistar rats [1]; [7],suppressed
same,increases in heart-weight elicited by compound A,female Wistar rats [1]; [7],suppressed
"COc1ccc2nc(COc3ccc(CC4SC(=O)NC4=O)cc3)n(C)c2c1.Cl (stereo not shown) [compound A, 5-[4-(6-methoxy-1-methyl-1H-benzimidazol-2-ylmethoxy)benzyl]thiazolidine-2,4-dione hydrochloride]",Ratio against control Heart-Weight,"female Wistar rats [2]; 3 successive days, n = 5-6",1.03^a)
same,Ratio against control Circulating Serum volume,"female Wistar rats [2]; 3 successive days, n = 5-6, p < 0.05",1.18^a)*
same,Ratio against control Circulating Serum volume,female Wistar rats [2]; [8],1.30^b)**
same,Ratio against control Heart-Weight,female Wistar rats [2]; [8],1.22^b)**
same,Circulating serum volume,female Wistar rats [2]; [9],increased
same,heart-weight,female Wistar rats [2]; [9],increased
same,blood glucose levels,"Zucker fatty rats; orally by gavage, 14 successive days, Zucker fatty rats",decreasing
same,"HOMA-R, an indicator of insulin resistance",Zucker fatty rats; [10],remarkably decreased
same,heart-weight,Zucker fatty rats; [10],increases
same,hematocrit value (dilution of the blood),Zucker fatty rats; [10],decreases
same,number of red blood cells (dilution of the blood),Zucker fatty rats; [10],decreases
same,triglyceride levels,Zucker fatty rats; [10],remarkably decreased
same,"Macroscopic Observation, Edema: Subcutaneous tissue (incidence)",female Wistar rats [1]; [11],1/12
same,"Macroscopic Observation, Edema: brown adipose tissue (incidence)",female Wistar rats [1]; [11],12/12
same,"Macroscopic Observation, Edema: interstitial tissue of thymus (incidence)",female Wistar rats [1]; [11],1/12
same,"Macroscopic Observation, Hydrothorax (incidence)",female Wistar rats [1]; [11],6/12
same,mean weight of thymus,female Wistar rats [1]; [11],521.4 mg
same,number of circulating red blood cells,"female Wistar rats [1]; compound A 200 mg/kg orally, female Wistar rats",Decreases
